Assay results: patent US12018059B2, “Human amylin analog polypeptides and methods of use” (Intarcia Therapeutics, Inc., priority 2018, dated 2024)
Where two headings read alike, the source gives them in different places. Starred links: 1 amine or outer side, 2 acyl side, 3 side chain; linkers in the order of their positions; H or OH if unused. Positions of bridges follow the written chain, without caps; N, C: chain ends. Residues, ends and D or L forms follow the SMILES beside them. Groups on a side chain read outwards from the residue. *: point of attachment. C18 diacid = O=C(O)CCCCCCCCCCCCCCCCC(=O)*; γGlu = O=C(O)[C@H](CCC(=O)[*:2])N[*:1]; AEEA = NCCOCCOCC(=O)O

Legend:
[1] = molecular target: human amylin 3 receptor (hAMY3R) (Homo sapiens, UniProt O60896+P30988); assay: cAMP accumulation functional assay in HEK293-CNG cells expressing hAMY3R; assay type: cell-based
Method: (§1) In the presence of the non-specific cAMP/cGMP phosphodiesterase inhibitor 3-isobutyl-1-methylxanthine (IBMX), accumulating cAMP can be measured in vitro using common detection methods. Thus, it is possible to estimate an in vitro potency (pEC50) for peptides activating each of these receptors using fit dose-response curves for cAMP accumulation.
(§2) Cells were carried in growth media for no more than 10 passages prior to testing.
(§3) Peptides were serially diluted in the same buffer as above for each given assay condition. Two assay control solutions consisting of 50 mcM forskolin (cAMP system maximum) or assay buffer only (cAMP system minimum) were also prepared in the appropriate stimulation buffers. Five microliters of each peptide-concentration, or assay control was added to triplicate wells and incubated for thirty minutes at room temperature. During this incubation step a 4× europium labelled cAMP tracer solution and a 4× Ulight®-anti-cAMP solution (consisting of an anti-cAMP monoclonal antibody labelled with Ulight™ dye) was prepared according to the manufacturer's protocol (PerkinElmer LANCE Ultra cAMP kit). Following this incubation, 5 mcL europium labelled cAMP and 5 mcL Ulight anti-cAMP antibody was added to wells. The plate was covered with an adhesive cover to prevent evaporation and incubated for 60 minutes at room temperature in the dark. Plates were read on an Envision fluorescent plate reader (PerkinElmer).
(§4) Test values were first normalized to the forskolin induced cAMP system maximum and system minimum averaged values in Excel using the formula: (test value−system minavg)/(system maxavg−system minavg)*100. Normalized test values represent a baseline corrected percentage of the system maximum cAMP response induced by forskolin. Normalized data was analyzed from triplicate tests and used to estimate the EC50 for each peptide on each receptor. Data was fit in GraphPad Prism software (v7.04) using a 4-parameter logistic curve model: Y=Bottom+(Top−Bottom)/(1+10^((Log EC50−X))). The Hill slope was constrained to 1.0. EC50 values were converted to pEC50 values using the formula: pEC50=−Log (EC50).

[2] = molecular target: T1, human calcitonin receptor (hCTR) (Homo sapiens, UniProt P30988); assay: cAMP accumulation functional assay in HEK293-CNG cells expressing hCTR; assay type: cell-based
T1 sequence (P30988 25-474): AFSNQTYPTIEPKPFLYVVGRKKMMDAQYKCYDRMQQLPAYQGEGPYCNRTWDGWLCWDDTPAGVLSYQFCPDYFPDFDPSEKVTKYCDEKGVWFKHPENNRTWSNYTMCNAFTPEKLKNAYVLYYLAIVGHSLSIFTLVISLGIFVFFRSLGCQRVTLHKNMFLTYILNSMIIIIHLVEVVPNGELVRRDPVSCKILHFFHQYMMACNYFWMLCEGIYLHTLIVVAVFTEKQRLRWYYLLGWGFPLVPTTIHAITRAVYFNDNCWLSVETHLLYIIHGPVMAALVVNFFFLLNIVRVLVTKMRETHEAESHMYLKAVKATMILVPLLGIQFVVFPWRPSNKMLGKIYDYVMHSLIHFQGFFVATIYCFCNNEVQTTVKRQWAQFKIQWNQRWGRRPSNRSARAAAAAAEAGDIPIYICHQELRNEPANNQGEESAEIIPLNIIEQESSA
Method: as §1, §2, §3, §4

[3] = Pharmacokinetics, 3-hour intravenous infusion of linear (non-acylated) polypeptides; design: species or system Sprague-Dawley rats; conditions: rat, in vivo, 0.1 mg/kg
Method: Peptides were dissolved in sterile saline and administered as a 3-hour intravenous infusion to non-fasted male Sprague-Dawley rats (n=3 per group) via femoral vein cannula at a final dose of 0.100 mg/kg. […] Blood samples (approximately 250 μL) were collected for pharmacokinetic analysis via a jugular vein cannula at 0.25, 0.5, 1, 2, 3, 3.17, 3.33, 3.5, 4, 4.5, 5, and 6 hr post-start of infusion (long method) or at 1, 1.5, 2, 2.5, and 3 hr post-start of infusion (steady-state screening method). All samples were collected into microtainer tubes containing K2EDTA as anticoagulant and 25 μL of a protease inhibitor cocktail. Plasma was prepared by centrifugation and stored at −80° C. until analysis. The results of this analysis are shown in Table 9 and few exemplars in FIGS. 3a-3b.
A 60 μL aliquot of each plasma sample was placed into to a 96-well plate. To each well was added 6 μL of 0.5% Tween-20. Plates were then vortexed mixed for 10 minutes at 1200 rpm before 180 μL of 0.1% TFA in 2:1 ethanol:acetonitrile containing an appropriate internal standard was added to each well. Plates were vortex mixed for 5 min at 1300 rpm, and then centrifuged for 10 min at 2844×g. Supernatants (180 μL) were placed into a clean 96-well plate and evaporated under a nitrogen stream at 45° C. Residues were reconstituted in 80 μL of 20% acetonitrile (aq) containing 0.1% formic acid.
A […] aliquot of each plasma sample was diluted with […] of 10 mM ammonium acetate (pH 6.8) containing an appropriate internal standard and loaded onto an Oasis WCX microElution plate (Waters Corporation, Milford, MA) that had been pre-conditioned with […] of methanol and […] of deionized water. Samples were washed with […] of 5% ammonium hydroxide (aq) followed by […] of 20% acetonitrile in water. The analyte was eluted with […] of 5% formic acid in 75:25 acetonitrile:water. The eluent was dried under a nitrogen stream. Residues were reconstituted in 80 μL of 20% acetonitrile (aq) containing 0.1% formic acid.
All calibration standards were prepared in control rat plasma containing K2EDTA and protease inhibitor cocktail.
Samples and standards were analyzed by TurbolonSpray™ UPLC-MS/MS using a system consisting of a CTC HTS PAL auto-injector (Leap, Carrboro, NC), an Agilent Infinity 1290 system with column oven (Palo Alto, CA), a Valco switching valve (Houston, TX), and either an AB Sciex API 5600 TripleTOF™ or Sciex API 4000QTrap mass spectrometer (Framingham, MA). Samples were injected onto a 2.1×50 mm reverse phase C18 analytical column, typically a Waters CORTECS UPLC C18+, 1.6 μm (Waters Corporation, Milford, MA) or similar. […] Initial conditions consisted of 90% A and 10% B. The organic component was increased to 95% B over a period of 3-4 minutes, depending on the peptide. Typical flow rates were 600 μL/min. The column temperature was held constant at 40 or 50° C. Peptides were quantified by monitoring one or more product ions produced from a multiply charged parent ion.

[4] = linear polypeptides, 3-hour intravenous infusion, 0.100 mg/kg, male Sprague-Dawley rats, read-out: CL

Chain of human amylin 3 receptor (hAMY3R) (O60896 24-148, one chain of several): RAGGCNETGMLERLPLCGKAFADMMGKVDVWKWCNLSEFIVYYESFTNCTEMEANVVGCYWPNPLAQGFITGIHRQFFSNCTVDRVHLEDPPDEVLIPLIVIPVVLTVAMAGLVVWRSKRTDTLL

Q: With `CC[C@H](C)[C@H](NC(=O)[C@@H]1CCCN1C(=O)CNC(=O)[C@H](Cc1ccccc1)NC(=O)[C@H](CC(N)=O)NC(=O)[C@H](CC(N)=O)NC(=O)[C@H](CO)NC(=O)[C@H](CO)NC(=O)[C@H](CCCCN)NC(=O)[C@H](Cc1c[nH]cn1)NC(=O)[C@H](CC(C)C)NC(=O)[C@H](CCC(=O)O)NC(=O)[C@H](CC(N)=O)NC(=O)[C@H](C)NC(=O)[C@H](CC(C)C)NC(=O)[C@H](CCCNC(=N)N)NC(=O)[C@H](CCC(N)=O)NC(=O)[C@@H](NC(=O)[C@H](C)NC(=O)[C@@H]1CSSC[C@H](NC(=O)[C@@H](N)CCCCNC(=O)COCCOCCNC(=O)COCCOCCNC(=O)CC[C@H](NC(=O)CCCCCCCCCCCCCCCCC(=O)O)C(=O)O)C(=O)N[C@@H](CC(N)=O)C(=O)N[C@@H]([C@@H](C)O)C(=O)N[C@@H](CO)C(=O)N[C@@H]([C@@H](C)O)C(=O)N1)[C@@H](C)O)C(=O)N[C@@H](CC(C)C)C(=O)N1CCC[C@H]1C(=O)N1CCC[C@H]1C(=O)N[C@H](C(=O)N[C@@H](CCCCN)C(=O)N[C@H](C(=O)NCC(=O)N[C@@H](CO)C(=O)N[C@@H](CCC(=O)O)C(=O)N[C@H](C(=O)N[C@@H](Cc1ccc(O)cc1)C(N)=O)[C@@H](C)O)C(C)C)[C@@H](C)O` [Compound A113] (H-K([AEEA-AEEA-γGlu-C18 diacid])CNTSTCATQRLANELHKSSNNFGPILPPTKVGSETY-NH2; disulfide 2-7) as the compound, how does the EC50 ([1]; 4% HSA, read-out: pEC50 hAMY3R 4% HSA (converted)) read?
A: The EC50 was 1 nM.

Q: What about the EC50 ([1]; pEC50 hAMY3R 0.1% HSA, 0.1% HSA) of the same compound?
A: The EC50 was 0.0251 nM.

Q: And the EC50 ([2]; hCTR 0% HSA, 0% HSA, read-out: pEC50 hCTR 0% HSA (converted))?
A: Its EC50 is 0.00501 nM.

Q: What about the EC50 ([2]; hCTR 0.1% HSA, 0.1% HSA) of the same compound?
A: Its EC50 is 0.2 nM.

Q: And the EC50 ([2]; hCTR 4% HSA, 4% HSA, read-out: pEC50 hCTR 4% HSA (converted))?
A: Its EC50 is 7.94 nM.

Q: With `CC[C@H](C)[C@H](NC(=O)[C@@H]1CCCN1C(=O)CNC(=O)[C@H](Cc1ccccc1)NC(=O)[C@H](CCC(=O)O)NC(=O)[C@H](CC(N)=O)NC(=O)[C@H](CO)NC(=O)[C@H](CO)NC(=O)[C@H](CCCCN)NC(=O)[C@@H](NC(=O)[C@H](CC(C)C)NC(=O)[C@H](Cc1ccccc1)NC(=O)[C@H](CC(N)=O)NC(=O)[C@H](CO)NC(=O)[C@H](CC(C)C)NC(=O)[C@H](CCCNC(=N)N)NC(=O)[C@H](CCC(N)=O)NC(=O)[C@@H](NC(=O)[C@H](C)NC(=O)[C@@H]1CSSC[C@H](NC(=O)[C@@H](N)CO)C(=O)N[C@@H](CC(N)=O)C(=O)N[C@@H]([C@@H](C)O)C(=O)N[C@@H](CO)C(=O)N[C@@H]([C@@H](C)O)C(=O)N1)[C@@H](C)O)C(C)C)C(=O)N[C@@H](CC(C)C)C(=O)N1CCC[C@H]1C(=O)N1CCC[C@H]1C(=O)N[C@H](C(=O)N[C@@H](CCCCN)C(=O)N[C@H](C(=O)NCC(=O)N[C@@H](CO)C(=O)N[C@@H](CCC(=O)O)C(=O)N[C@H](C(=O)N[C@@H](Cc1ccc(O)cc1)C(N)=O)[C@@H](C)O)C(C)C)[C@@H](C)O` [Compound A4] (H-SCNTSTCATQRLSNFLVKSSNEFGPILPPTKVGSETY-NH2; disulfide 2-7) as the compound, how does the clearance ([3]; iv) read?
A: The clearance was 13.6 mL/min/kg.

Q: For `CC[C@H](C)[C@H](NC(=O)[C@@H]1CCCN1C(=O)CNC(=O)[C@H](Cc1ccccc1)NC(=O)[C@H](CC(N)=O)NC(=O)[C@H](CC(N)=O)NC(=O)[C@H](CO)NC(=O)[C@H](CO)NC(=O)[C@H](CCCNC(=N)N)NC(=O)[C@H](Cc1c[nH]cn1)NC(=O)[C@H](CC(C)C)NC(=O)[C@H](CCC(=O)O)NC(=O)[C@H](CC(N)=O)NC(=O)[C@H](C)NC(=O)[C@H](CC(C)C)NC(=O)[C@H](CCCNC(=N)N)NC(=O)[C@H](CCC(N)=O)NC(=O)[C@@H](NC(=O)[C@H](C)NC(=O)[C@@H]1CSSC[C@H](NC(=O)[C@@H](N)CO)C(=O)N[C@@H](CC(N)=O)C(=O)N[C@@H]([C@@H](C)O)C(=O)N[C@@H](CO)C(=O)N[C@@H]([C@@H](C)O)C(=O)N1)[C@@H](C)O)C(=O)N[C@@H](CC(C)C)C(=O)N1CCC[C@H]1C(=O)N1CCC[C@H]1C(=O)N[C@H](C(=O)N[C@@H](CC(N)=O)C(=O)N[C@H](C(=O)NCC(=O)N[C@@H](CO)C(=O)N[C@@H](CC(N)=O)C(=O)N[C@H](C(=O)N[C@@H](Cc1ccc(O)cc1)C(N)=O)[C@@H](C)O)C(C)C)[C@@H](C)O` [Compound A45] (H-SCNTSTCATQRLANELHRSSNNFGPILPPTNVGSNTY-NH2; disulfide 2-7), which clearance [3, 4] is on record?
A: Its clearance is 21.1 mL/min/kg.

Q: For `CC[C@H](C)[C@H](NC(=O)[C@@H]1CCCN1C(=O)CNC(=O)[C@H](Cc1ccccc1)NC(=O)[C@H](CC(N)=O)NC(=O)[C@H](CC(N)=O)NC(=O)[C@H](CO)NC(=O)[C@H](CO)NC(=O)[C@H](CCCCN)NC(=O)[C@H](Cc1c[nH]cn1)NC(=O)[C@H](CC(C)C)NC(=O)[C@H](CCC(=O)O)NC(=O)[C@H](CC(N)=O)NC(=O)[C@H](C)NC(=O)[C@H](CC(C)C)NC(=O)[C@H](CCCNC(=N)N)NC(=O)[C@H](CCC(N)=O)NC(=O)[C@@H](NC(=O)[C@H](C)NC(=O)[C@@H]1CSSC[C@H](NC(=O)[C@@H](N)CO)C(=O)N[C@@H](CC(N)=O)C(=O)N[C@@H]([C@@H](C)O)C(=O)N[C@@H](CO)C(=O)N[C@@H]([C@@H](C)O)C(=O)N1)[C@@H](C)O)C(=O)N[C@@H](CC(C)C)C(=O)N1CCC[C@H]1C(=O)N1CCC[C@H]1C(=O)N[C@H](C(=O)N[C@@H](CCCCN)C(=O)N[C@H](C(=O)NCC(=O)N[C@@H](CO)C(=O)N[C@@H](CC(N)=O)C(=O)N[C@H](C(=O)N[C@@H](Cc1ccc(O)cc1)C(N)=O)[C@@H](C)O)C(C)C)[C@@H](C)O` [Compound A17] (H-SCNTSTCATQRLANELHKSSNNFGPILPPTKVGSNTY-NH2; disulfide 2-7), which clearance [3, 4] is on record?
A: Its clearance is 20 mL/min/kg.
